pIC50: −log10 of the molar value.
Molecular target: PI3Kβ (Homo sapiens (Human), UniProt P42338)
Experiment: PI3K isoform TR-FRET enzymatic assay (PI3Kβ)
Type: biochemical
Conditions: 2× Km ATP, 30 minutes at 25° C.
Protocol: The compounds of formula (I) were characterized for their enzymatic activity against the PI3K isoforms. The activities were measured using a time-resolved fluorescence resonance energy transfer (TR-FRET) assay. TR-FRET monitored the formation of 3,4,5-inositol triphosphate molecule that competed with fluorescently labeled PIP3 for binding to the GRP-1 pleckstrin homology domain protein.
Class I PI3K isoforms were expressed and purified as heterodimeric recombinant proteins. All assay reagents and buffers for the TR-FRET assay were purchased from Millipore. […] The compounds were added to the assay solution and incubated for 30 minutes at 25° C. The reactions were terminated with a final concentration of 10 mM EDTA, 10 nM labeled-PIP3, and 35 nM Europium labeled GRP-1 detector protein before reading TR-FRET on an Envision plate reader (Ex: 340 nm; Em: 615/665 nm; 100 μs delay and 500 μs read window).
The results were normalized based on positive (1 μM wortmanin) and negative (DMSO) controls, and the IC50 values for PI3K α, β, δ, and γ were calculated from the fit of the dose-response curves to a four-parameter equation.

Chain of PI3Kβ (P42338 whole entry, canonical isoform): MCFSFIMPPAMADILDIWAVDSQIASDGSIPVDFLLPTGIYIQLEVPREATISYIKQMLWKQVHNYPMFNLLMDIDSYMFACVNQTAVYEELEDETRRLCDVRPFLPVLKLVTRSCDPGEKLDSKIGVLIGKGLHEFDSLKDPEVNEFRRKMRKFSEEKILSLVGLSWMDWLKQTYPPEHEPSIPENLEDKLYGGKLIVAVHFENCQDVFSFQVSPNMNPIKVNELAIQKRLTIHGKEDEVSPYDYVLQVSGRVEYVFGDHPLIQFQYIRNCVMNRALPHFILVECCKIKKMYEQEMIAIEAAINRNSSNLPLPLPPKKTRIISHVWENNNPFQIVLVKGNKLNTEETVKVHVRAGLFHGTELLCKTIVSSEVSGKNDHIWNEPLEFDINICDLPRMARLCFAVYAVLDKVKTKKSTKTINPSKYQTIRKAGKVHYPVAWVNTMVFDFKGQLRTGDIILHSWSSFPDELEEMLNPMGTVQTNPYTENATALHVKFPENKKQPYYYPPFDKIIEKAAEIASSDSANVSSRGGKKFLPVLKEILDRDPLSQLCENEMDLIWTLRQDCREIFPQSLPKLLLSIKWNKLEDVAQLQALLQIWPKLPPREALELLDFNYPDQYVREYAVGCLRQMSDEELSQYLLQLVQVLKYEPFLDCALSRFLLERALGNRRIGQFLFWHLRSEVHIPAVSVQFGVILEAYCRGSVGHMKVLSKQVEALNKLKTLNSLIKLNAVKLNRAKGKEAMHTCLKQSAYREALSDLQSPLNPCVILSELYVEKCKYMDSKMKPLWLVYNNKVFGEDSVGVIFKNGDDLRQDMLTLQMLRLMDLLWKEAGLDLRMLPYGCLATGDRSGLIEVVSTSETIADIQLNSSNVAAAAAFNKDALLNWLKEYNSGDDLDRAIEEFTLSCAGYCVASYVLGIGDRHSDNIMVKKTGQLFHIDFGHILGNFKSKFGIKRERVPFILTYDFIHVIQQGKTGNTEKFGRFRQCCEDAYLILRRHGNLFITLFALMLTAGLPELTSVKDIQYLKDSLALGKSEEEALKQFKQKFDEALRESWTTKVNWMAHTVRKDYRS
Chain of PI3Kβ (P27986 whole entry partner, canonical isoform): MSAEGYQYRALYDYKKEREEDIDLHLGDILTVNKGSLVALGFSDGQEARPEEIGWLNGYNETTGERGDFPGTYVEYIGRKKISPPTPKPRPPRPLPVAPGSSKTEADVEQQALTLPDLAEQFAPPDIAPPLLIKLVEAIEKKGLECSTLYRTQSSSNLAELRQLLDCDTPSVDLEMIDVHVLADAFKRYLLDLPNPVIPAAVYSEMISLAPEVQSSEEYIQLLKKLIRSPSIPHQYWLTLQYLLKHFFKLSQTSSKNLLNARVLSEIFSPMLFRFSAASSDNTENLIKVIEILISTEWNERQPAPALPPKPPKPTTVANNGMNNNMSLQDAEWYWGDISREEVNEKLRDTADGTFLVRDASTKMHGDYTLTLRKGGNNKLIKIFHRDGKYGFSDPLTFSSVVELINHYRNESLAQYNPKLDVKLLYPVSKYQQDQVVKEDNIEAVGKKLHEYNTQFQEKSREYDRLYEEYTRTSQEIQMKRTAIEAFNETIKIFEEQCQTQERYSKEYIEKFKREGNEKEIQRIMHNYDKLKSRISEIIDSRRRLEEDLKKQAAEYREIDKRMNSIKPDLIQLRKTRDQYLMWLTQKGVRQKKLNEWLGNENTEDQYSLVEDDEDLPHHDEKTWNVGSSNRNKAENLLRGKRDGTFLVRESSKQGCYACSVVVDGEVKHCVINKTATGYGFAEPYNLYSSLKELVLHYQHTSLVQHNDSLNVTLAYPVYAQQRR

| Structure (SMILES) | pIC50 |
| --- | --- |
| CCCc1nc2c(-c3nnc[nH]3)cc(N3CCOCC3)cc2n1-c1ccnc2c(F)ccc(F)c12 [Example 45, 4-(1-(5,8-difluoroquinolin-4-yl)-2-propyl-4-(4H-1,2,4-triazol-3-yl)-1H-benzo[d]imidazol-6-yl)morpholine] | 7.72 |
| Clc1ncc(-c2cc(N3CCOCC3)cc3c2nc(C2COC2)n3-c2ccnc3c(Cl)cccc23)[nH]1 [Example 291, 4-[7-(2-chloro-1H-imidazol-5-yl)-3-(8-chloroquinolin-4-yl)-2-(oxetan-3-yl)benzimidazol-5-yl]morpholine] | 7.57 |
| Cc1nc2c(-c3cccc(C(N)=O)c3)cc(N3CCOCC3)cc2n1-c1ccnc2c(Cl)cccc12 [Example 321, 3-[1-(8-chloroquinolin-4-yl)-2-methyl-6-morpholin-4-ylbenzimidazol-4-yl]benzamide] | 5.36 |
| Fc1ccc(F)c2c(-n3c(C4CC4)nc4c(-c5nccs5)cc(N5CCOCC5)cc43)ccnc12 [Example 241, 4-[2-cyclopropyl-3-(5,8-difluoroquinolin-4-yl)-7-(1,3-thiazol-2-yl)benzimidazol-5-yl]morpholine] | 7.57 |
| Cc1nc2c(-c3nnc[nH]3)cc(N3CCOCC3)cc2n1-c1cc(-c2nnc[nH]2)nc2ccccc12 [Example 57, 4-[2-methyl-7-(4H-1,2,4-triazol-3-yl)-3-[2-(4H-1,2,4-triazol-3-yl)quinolin-4-yl]benzimidazol-5-yl]morpholine] | 7.26 |
| Cc1nc2c(-c3cnc(Cl)[nH]3)cc(N3CCOCC3)cc2n1-c1ccnc2c(Cl)c(F)ccc12 [Example 294, 4-[3-(8-chloro-7-fluoroquinolin-4-yl)-7-(2-chloro-1H-imidazol-5-yl)-2-methylbenzimidazol-5-yl]morpholine] | 8.22 |
| CCCc1nc2c(-c3nnc(C)[nH]3)cc(N3CCOCC3)cc2n1-c1ccnc2c(C)ccc(F)c12 [Example 43, 4-(1-(5-fluoro-8-methylquinolin-4-yl)-4-(5-methyl-4H-1,2,4-triazol-3-yl)-2-propyl-1H-benzo[d]imidazol-6-yl)morpholine] | 7.70 |
| Cc1nnc(-c2cc(N3CCOCC3)cc3c2nc(CC(C)C)n3-c2ccnc3c(Cl)cccc23)[nH]1 [Example 2, 4-(1-(8-chloroquinolin-4-yl)-2-isobutyl-4-(5-methyl-4H-1,2,4-triazol-3-yl)-1H-benzo[d]imidazol-6-yl)morpholine] | 7.62 |
| CCc1nc2c(-c3nnc[nH]3)cc(N3CCOCC3)cc2n1-c1c(-c2nnc[nH]2)cnc2ccccc12 [Example 391, 4-(1-(3-(4H-1,2,4-triazol-3-yl)quinolin-4-yl)-2-ethyl-4-(4H-1,2,4-triazol-3-yl)-1H-benzo[d]imidazol-6-yl)morpholine] | 8.00 |
| Clc1cccc2c(-n3c(C4CCCO4)nc4c(-c5ccccc5)cc(N5CCOCC5)cc43)ccnc12 (stereo not shown) [Example 198] | 6.92 |
| Cc1nc2c(-c3nnc[nH]3)cc(N3CCOCC3)cc2n1-c1ccnc2cc(F)cc(F)c12 [Example 131, 4-[3-(5,7-difluoroquinolin-4-yl)-2-methyl-7-(4H-1,2,4-triazol-3-yl)benzimidazol-5-yl]morpholine] | 7.34 |
| Fc1ccc(F)c2c(-n3c(C4CC4)nc4c(-c5cnc(Cl)[nH]5)cc(N5CCOCC5)cc43)ccnc12 [Example 286, 4-[7-(2-chloro-1H-imidazol-5-yl)-2-cyclopropyl-3-(5,8-difluoroquinolin-4-yl)benzimidazol-5-yl]morpholine] | 7.85 |
| CCc1nc2c(-c3nnc[nH]3)cc(N3CCOCC3)cc2n1-c1ccnc2c(F)ccc(Cl)c12 [Example 5, 4-(1-(5-chloro-8-fluoroquinolin-4-yl)-2-ethyl-4-(4H-1,2,4-triazol-3-yl)-1H-benzo[d]imidazol-6-yl)morpholine] | 7.54 |
| Cc1nc2c(-c3ncco3)cc(N3CCOCC3)cc2n1-c1ccnc2c(F)cccc12 [Example 200, 4-(1-(8-fluoroquinolin-4-yl)-2-methyl-4-(oxazol-2-yl)-1H-benzo[d]imidazol-6-yl)morpholine] | 8.05 |
| Cc1cc(-n2c(C)nc3c(-c4nc(C)n[nH]4)cc(N4CCOCC4)cc32)c2ccccc2n1 [Example 73, 4-[2-methyl-3-(2-methylquinolin-4-yl)-7-(3-methyl-1H-1,2,4-triazol-5-yl)benzimidazol-5-yl]morpholine] | 7.11 |
| Cc1nc2c(-c3nnc[nH]3)cc(N3CCOCC3)cc2n1-c1ccnc2c(F)c(F)ccc12 (atropisomer, axis not shown) [Compound 352, 4-[3-(7,8-difluoroquinolin-4-yl)-2-methyl-7-(4H-1,2,4-triazol-3-yl)benzimidazol-5-yl]morpholine] | 8.15 |
| Cc1cc(-n2c(C)nc3c(-c4nnn[nH]4)cc(N4CCOCC4)cc32)c2ccccc2n1 [Example 160, 4-(2-methyl-1-(2-methylquinolin-4-yl)-4-(1H-tetrazol-5-yl)-1H-benzo[d]imidazol-6-yl)morpholine] | 6.33 |
| Cc1nnc(-c2cc(N3CCOCC3)cc3c2nc(C)n3-c2c(F)cnc3ccccc23)[nH]1 [Example 154, 4-(1-(3-fluoroquinolin-4-yl)-2-methyl-4-(5-methyl-4H-1,2,4-triazol-3-yl)-1H-benzo[d]imidazol-6-yl)morpholine] | 5.66 |
| Cc1nc2c(-c3nnc(C(C)C)[nH]3)cc(N3CCOCC3)cc2n1-c1ccnc2c(Cl)cccc12 [Example 138, 4-[3-(8-chloroquinolin-4-yl)-2-methyl-7-(5-propan-2-yl-4H-1,2,4-triazol-3-yl)benzimidazol-5-yl]morpholine] | 6.85 |
| Cc1nc2c(Cl)cccc2c(-n2c(C)nc3c(-c4nnc[nH]4)cc(N4CCOCC4)cc32)c1C [Example 70, 4-[3-(8-chloro-2,3-dimethylquinolin-4-yl)-2-methyl-7-(4H-1,2,4-triazol-3-yl)benzimidazol-5-yl]morpholine] | 7.44 |
| Cc1nc2c(-c3nnc[nH]3)cc(N3CCOCC3)cc2n1-c1ccnc2c(Cl)cccc12 [Example 101, 4-[3-(8-chloroquinolin-4-yl)-2-methyl-7-(4H-1,2,4-triazol-3-yl)benzimidazol-5-yl]morpholine] | 8.15 |
| CCc1nc2c(-c3cnc(Cl)[nH]3)cc(N3CCOCC3)cc2n1-c1ccnc2c(F)ccc(F)c12 [Example 280, 4-[7-(2-chloro-1H-imidazol-5-yl)-3-(5,8-difluoroquinolin-4-yl)-2-ethylbenzimidazol-5-yl]morpholine] | 7.89 |
| Cc1nc2c(-c3nnc[nH]3)cc(N3CCOCC3)cc2n1-c1ccnc2c(C(F)F)cccc12 [Example 82, 4-[3-[8-(difluoromethyl)quinolin-4-yl]-2-methyl-7-(4H-1,2,4-triazol-3-yl)benzimidazol-5-yl]morpholine] | 8.05 |
| CCCc1nc2c(-c3nnc[nH]3)cc(N3CCOCC3)cc2n1-c1ccnc2c(F)cccc12 (atropisomer, axis not shown) [Compound 354, 4-[3-(8-fluoroquinolin-4-yl)-2-propyl-7-(4H-1,2,4-triazol-3-yl)benzimidazol-5-yl]morpholine] | 8.10 |
| Cc1nnc(-c2cc(N3CCOCC3)cc3c2nc(C2CC2)n3-c2ccnc3c(Cl)cccc23)[nH]1 [Example 47, 4-(1-(8-chloroquinolin-4-yl)-2-cyclopropyl-4-(5-methyl-4H-1,2,4-triazol-3-yl)-1H-benzo[d]imidazol-6-yl)morpholine] | 7.74 |
